Experimental data: patent US11242337B2, “Compounds useful for treating gastrointestinal tract disorders” (Ardelyx, Inc., priority 2017, dated 2022)
Read-outs that look alike come from different tables or passages of the source.

Experiments:
gastrointestinal transit = assay: Restoration of gastrointestinal motility in opioid induced constipation (loperamide); type: in vivo, mice; conditions: loperamide s.c., Evans Blue small intestinal transit 30 minutes
Method: Approximately eight-week old, female, CD1 […] are purchased from Envigo (Livermore, Calif.), are housed 4 per cage and acclimated for at least 48 hours before study initiation. Animals are fed standard laboratory rodent chow Harlan Teklad Global 2018 (Madison, Wis.). Animals have ad libitum access to food and water for the duration of the acclimation period and are maintained in a temperature and humidity controlled room on a standard light/dark cycle of 6 AM to 6 PM. Following an overnight fast, with free access to water, animals are dosed by oral gavage with varying doses of test compound or vehicle (3 mM HCl, 0.01% Tween80), at a dose volume of 5 mL/kg. […] For an individual animal, the length travels by the Evans Blue dye front is divided by the length of the whole small intestine, measured from the pylorus to the cecum, and multiplied by 100, to provide the distance of the small intestine travelled by the dye as a percentage.

[1] = test system: absorption of sodium from the intestinal lumen; assay: Inhibition of intestinal sodium absorption in rats; type: in vivo, Sprague Dawley rats; conditions: 13-hours post-dose; for response vs control in vivo at 0.03 mg/kg / response vs control in vivo at 0.1 mg/kg / response vs control in vivo at 0.3 mg/kg: Rattus norvegicus, Sprague Dawley rats, read-out: Urinary Na (% of Vehicle, out/in); for response vs control in vivo at 0.03 mg/kg: oral gavage 0.03 mg/kg; for response vs control in vivo at 0.1 mg/kg: oral gavage 0.1 mg/kg; for response vs control in vivo at 0.3 mg/kg: oral gavage 0.3 mg/kg; for FFS (1-5): rats, group median fecal form score, 1 normal pellet to 5 liquid fecal streams
Method: Urinary sodium excretion and fecal form were measured to assess the ability of selected example compounds to inhibit the absorption of sodium from the intestinal lumen. Eight-week old, male, Sprague Dawley rats were purchased from Envigo (Livermore, Calif.), were housed 2 per cage and acclimated for at least 48 hours before study initiation. Animals were fed. Harlan Teklad Global TD.160470 rodent chow (Madison, Wis.), standard laboratory rodent chow Harlan Teklad Global 2018 with the addition of 0.4% inorganic phosphorous. Animals had ad libitum access to food and water for the duration of the study and were maintained in a temperature and humidity controlled room on a standard light/dark cycle of 6 AM to 6 PM. On the day of study initiation, rats (n=5/group) were dosed by oral gavage with test compound or vehicle (3 mM HCl, 0.01% Tween80) at a dose volume of […]. Immediately after dose administration animals were placed in individual metabolic cages. At 13-hours post-dose, urine samples were collected and fecal form was assessed. In addition, the weight of food consumed over the 13-hour period was measured and recorded. Fecal forms were scored according to a common scale associated with increasing fecal water to the wettest observation in the cage's collection funnel (1, normal pellet; 2, pellet adhering to sides of collection funnel due to moisture; 3, loss of normal pellet shape; 4, complete loss of shape with a blotting pattern; 5, liquid fecal streams evident). Fecal form score (FFS) was calculated for each group as the median of each individual rat's FFS within the group and reported in Table 7. Fecal samples were dried using a lyophilizer for at least 3 days, following which dry weight was recorded and fecal fluid content was calculated based on the difference between the wet and dry stool weights. Fecal fluid content was calculated as a change from the vehicle group mean. For urine samples, the volumes were determined gravimetrically. Urine samples were analyzed on an ion chromatography system (Thermo Fisher ICS-3000 or ICS-5000+) coupled with conductivity detectors. Chromatographic separation of cations was performed using an IonPac CS12A (Thermo Fisher) 2×250 mm analytical column with an isocratic elution using 25 mM methanesulfonic acid. Concentrations were interpolated from a standard curve (prepared in 10 mM HCl) for sodium based on retention time and peak area. Thirteen-s-hour urinary sodium excretion (mg/13-hours) was calculated by multiplying urinary sodium concentration by 13-hour urine volume. The urinary sodium excretion of compound treatment was normalized to dietary sodium intake and expressed as a percentage of the vehicle mean.

[2] = test system: human duodenum monolayer culture; assay: Increased trans-epithelial resistance (TEER) in human organoid monolayer cell cultures; type: cell-based; conditions: 1 μM apical, baseline corrected
Method: Basal media (B consisted of advanced DMEM/F12 containing 10 mM HEPES (Invitrogen, 15630-080), 1:100 Glutamax (Invitrogen, 35050-061), and 1:100 penicillin/streptomycin (Invitrogen, 15140-122). Supplemented basal media (SBM) contained 1:100 N2 (Invitrogen, 17502-048), 1:50 B27 (Invitrogen, 12587-010), 1 mM N-acetylcysteine (Sigma, A9165), and 10 nM [Leu15]-gastrin I (Sigma, G9145). Growth factors used included 50 ng per mL mouse EGF (Peprotech, 315-09), 100 ng per mL mouse noggin (Peprotech, 250-38), 500 ng per mL human R-spondin 1 (R&D, 4645-RS), 100 ng per mL mouse Wnt-3a (R&D, 1324-WN), 20 μM Y-27632 (Tocris, 1254), 10 mM nicotinamide (Sigma, N0636), 500 nM A83-01 (Tocris, 2939), 10 μM SB202190 (Tocris, 1264). Transwells were 0.4 μm pore polyester membrane 24-well Transwell inserts (Corning). Cultures were incubated at 37° C. in 5% CO2.
Human duodenum organoids were cultured in WENRNAS (Wnt, EGF, noggin, R-spondin1, Nicotinamide, A83-01, SB202190) and typically grown for 7-12 days before being used to plate monolayer cultures. On day 0, organoid cultures embedded in Matrigel were treated with TrypLE Express to break organoids into small pieces and/or single cells. The cells were resuspended to 0.5×10^6 cells/mL in SBM containing WENRAY (Wnt, EGF, noggin, R-spondin1, A83-01, Y-27632). Following this step, 200 μL of cell suspension was plated into the apical side of a 24-well Transwell (100,000 cells/well) and 600 μL of SBM with WENRAY was added to the basolateral side. Duodenum cells were differentiated with ENA (EGF, noggin, A83-01) on day 3. The color of apical compartment turns from pink or orange to yellow due to the increase in NHE3 expression after differentiation.
Each human duodenum monolayer culture well was washed twice with fresh SBM on the apical side on day 6 or day 7 before dosing. All compound stocks were 10 mM dissolved DMSO. Each compound stock was individually mixed with fresh SBM to reach final compound concentration 1 μM and dosed only on the apical side of the monolayer (total volume 200 μl). DMSO at the equivalent concentration was used as the vehicle control. Duplicate wells were dosed for each compound. Transepithelial electrical resistance (TEER) was used as a quantitative technique to measure of tight junction permeability. TEER values were recorded (MERS00002, Millipore) before dosing and 30 mins and 1 hr after dosing for all wells. Each of the duplicate TEER values following treatment were corrected for the individual well baseline TEER. Baseline corrected TEER for each example compound was compared to the average of the DMSO wells and expressed as a percent TEER of vehicle control.

[3] = 1 hr after dosing, read-out: TEER at 60 minutes (% of Vehicle)
[4] = 0.5 h, 30 mins after dosing, read-out: TEER at 30 minutes (% of Vehicle)

Row | Compound | % Restoration of Transit (gastrointestinal transit; oral gavage 15 mg/kg) | response vs control in vivo at 0.03 mg/kg [1] [%] | response vs control in vivo at 0.1 mg/kg [1] [%] | response vs control in vivo at 0.3 mg/kg [1] [%] | FFS (1-5) ([1]; 0.03 mg/kg) | FFS (1-5) ([1]; 0.1 mg/kg) | FFS (1-5) ([1]; 0.3 mg/kg) | activity at 1 µM [2, 3] [%] | activity at 1 µM [2, 4] [%] | % Restoration of Transit (gastrointestinal transit; oral gavage 1.5 mg/kg) | % Restoration of Transit (gastrointestinal transit; oral gavage 5 mg/kg)
1 | N#Cc1cc(Cl)cc2c1C[C@H](N1CCNCC1)[C@H]2Oc1ccc(S(=O)(=O)NC2CCN(CCOCCNC(=O)NCCCCNC(=O)NCCOCCN3CCC(NS(=O)(=O)c4ccc(O[C@H]5c6cc(Cl)cc(C#N)c6C[C@@H]5N5CCNCC5)cc4)CC3)CC2)cc1 [Example 123, 4-([(1S,2S)-6-Chloro-4-cyano-2-(piperazin-1-yl)-2,3-dihydro-1H-inden-1-yl]oxy)-N-[1-(20-[4-([4-([(1S,2S)-6-chloro-4-cyano-2-(piperazin-1-yl)-2,3-dihydro-1H-inden-1-yl]oxy)phenyl]sulfonamide]piperidin-1-yl)-7,14-dioxo-3,18-dioxa-6,8,13,15-tetraazaicosyl]piperidin-4-yl)benzenesulfonamide] | A (<20%) | > 70 | 40 to 70 | < 40 | 3 | 3 | 3 |  |  |  | 
2 | C[C@@H]1CN([C@H]2Cc3c(C#N)cc(Cl)cc3[C@@H]2Oc2ccc(S(=O)(=O)N[C@H]3CCN(CCOCCNC(=O)NCCCCNC(=O)NCCOCCN4CC[C@H](NS(=O)(=O)c5ccc(O[C@H]6c7cc(Cl)cc(C#N)c7C[C@@H]6N6CCN[C@H](C)C6)cc5)C4)C3)cc2)CCN1 [Example 132, 4-([(1S,2S)-6-Chloro-4-cyano-2-[(R)-3-methylpiperazin-1-yl]-2,3-dihydro-1H-inden-1-yl]oxy)-N—[(S)-1-(20-[(S)-3-([4-([(1S,2S)-6-chloro-4-cyano-2-[(R)-3-methylpiperazin-1-yl]-2,3-dihydro-1H-inden-1-yl]oxy)phenyl]sulfonamido)pyrrolidin-1-yl]-7,14-diaxo-3,18-dioxa-5,8,13,15-tetraazaicosyl)pyrrolidin-3-yl]benzenesulfonamide; bis(trifluoroacetic acid)] | C (>40%) | > 70 | 40 to 70 | < 40 | 3 | 3 | 3 |  |  |  | 
3 | N#Cc1cc(Cl)cc2c1C[C@H](N1CCNCC1)[C@H]2Oc1ccc(S(=O)(=O)N[C@H]2CCN(CCOCCNC(=O)NCCCCNC(=O)NCCOCCN3CC[C@H](NS(=O)(=O)c4ccc(O[C@H]5c6cc(Cl)cc(C#N)c6C[C@@H]5N5CCNCC5)cc4)C3)C2)cc1 [Example 107, 4-([(1S,2S)-6-Chloro-4-cyano-2-(piperazin-1-yl)-2,3-dihydro-1H-inden-1-yl]oxy)-N—[(S)-1-(20-[(S)-3-([4-([(1S,2S)-6-chloro-4-cyano-2-(piperazin-1-yl)-2,3-dihydro-1H-inden-1-yl]oxy)phenyl]sulfonamido)pyrrolidin-1-yl]-7,14-dioxo-3,18-dioxa-6,8,13,15-tetraazaicosyl)pyrrolidin-3-yl]benzenesulfonamide; tetra(trifluoroacetate)] |  | 40 to 70 | 40 to 70 | < 40 | 3 | 3 | 3 | 100 to 130 | > 130 |  | 
4 | N#Cc1cc(Cl)cc2c1C[C@H](N1CCNCC1)[C@H]2Oc1ccc(S(=O)(=O)NCCOCCOCCNC(=O)NCCCCNC(=O)NCCOCCOCCNS(=O)(=O)c2ccc(O[C@H]3c4cc(Cl)cc(C#N)c4C[C@@H]3N3CCNCC3)c(F)c2)cc1F [Example 43, 3-[2-(2-[2-[(4-[[(1S,2S)-6-Chloro-4-cyano-2-(piperazin-1-yl)-2,3-dihydro-1H-inden-1-yl]oxy]-3-fluorobenzene)sulfonamido]ethoxy]ethoxy)ethyl]-1-[4-([[2-(2-[2-[(4-[[(1S,2S)-6-chloro-4-cyano-2-(piperazin-1-yl)-2,3-dihydro-1H-inden-1-yl]oxy]-3-fluorobenzene)sulfonamido]ethoxy]ethoxy)ethyl]carbamoyl]amino)butyl]urea; bis(trifluoroacetic acid)] | A (<20%) |  |  |  |  |  |  | 100 to 130 | 100 to 130 | B (20-40%) | A (<20%)
